Test [1] deals with HT-29 cells. Briefly: Apoptosis, Cell Death Detection ELISA, HT-29 cells. Format: cell-based, human. The method, then: Apoptosis was determined using the Cell Death Detection ELISA^PLUS assay kit according to the manufacturer's protocol (Roche, Indianapolis, Ind.). Briefly, the cells were treated with either NO-ASA or Dex for 3 h. Cells were harvested and washed three times with PBS. The cell pellet was resuspended with lysis buffer and incubated for 30 min at RT. Cell […] at 200×g for 10 min. The ELISA assay was performed using 20 μl cell lysate and 80 μl Immunoreagent (containing 72 μl Incubation Buffer, 4 μl Anti-histone-biotin Solution, and 4 μl Anti-DNA-POD Solution) per micro-plate well. The micro-plate was covered with an adhesive foil and incubated on a shaker under gentle shaking at 200 rpm for 2 h at RT. The solution in each well was removed thoroughly by tapping and the pellets were rinsed three times with 200 μl Incubation Buffer. […] The absorbance was measured at 405 nm using the SpectraMax micro-plate reader (Molecular Devices, Sunnyvale).
Briefly, annexin 1 cDNA clones (OreGen) or the PCMV6XL5 vector, as a negative control, were transiently transfected into BxPC-3 cells grown to 40-60% confluency using Lipofectamine according to the product protocol (Invitrogen). […] NF-κB activity was subsequently measured by the TransBinding NF-κB Assay Kit and ELISA as described in Example 2. […]
In general terms: An ELISA detects its analyte on a solid surface through an enzyme-linked reagent.

Another test relates to pancreatic cancer. The following applies: animal tumor model; cited from earlier work.
Test [2] concerns HT-29 cells. Briefly: MTT cell growth assay, HT-29. Format: cell-based, human. The following applies: at 24 h; read-out: Inhibition of HT-29 cell growth IC50. (In general: Tetrazolium assays rely on reduction of a dye to a coloured formazan, in cell work by metabolically active cells.)
The subject of test [3] is annexin 1. As to the kind of experiment: Induction of annexin 1 in BxPC-3 cells, Western blot of nuclear and cytoplasmic extracts. The class given is cell-based, human. The method, then:
(§1) The human pancreatic cancer cell line, BxPC-3, or the colon cancer cell line HT-29, both from ATCC (Manassas, Va.) were maintained and grown in RPMI 1640 or McCoy's 5A medium (Cellgro) supplemented with 10% fetal bovine serum (HyClone) and 1% penicillin/streptomycin (Cellgro) in a humidified incubator at 37° C. and 5% CO2.
The cell fractions were obtained as described by Andrews and Faller (N. C. Andrews and D. V. Faller, Nucleic Acids Res. 19:2499 (1991)) with modification. Briefly, the cells were pelleted after treatment and washed three times with PBS. The cell pellets were resuspended in ice cold buffer A (10 mM HEPES, pH 7.9, 10 mM KCl, 1.5 mM MgCI2, 0.5 mM DTT, 0.5 mM PMSF) with protease inhibitor cocktail (Sigma) and incubated on ice for 15 min with occasional mixing by gently tapping the tube. The cell lysates were centrifuged up to 5000 rpm for three times. The supernatants were collected as cytoplasmic extracts. Nuclear pellets were washed with buffer A and resuspended in buffer C (20 mM HEPES, pH 7.9, 450 mM NaCl, 1.5 mM MgCI2, 0.2 mM EDTA, 0.5 mM DTT, 0.5 mM PMSF, 25% Glycerol) with protease inhibitor cocktail (Sigma) and incubated on ice for 30 min with occasional mixing to extract nuclear proteins. Nuclear extracts were cleared by centrifugation (14,800 rpm for 10 min) and the supernatants were collected as nuclear extracts.
(§2) For Western blotting, the proteins from both cytoplasmic extracts and nuclear extracts were separated by SDS-polyacrylamide gel electrophoresis and transferred onto PVDF membranes (Millipore). The membranes were blocked in 5% nonfat dry milk-TBS-T (20 mM Tris-HCl, pH 7.5, 500 mM NaCl. 0.3% Tween 20) at room temperature (RT) for an hour and probed with anti-annexin 1, c-IAP-1, c-IAP-2, and TRAF-1 (Santa Cruz Biotechnology, Inc. CA), and anti-Bcl-2 antibodies (Cell Signaling Technology), in 5% nonfat dry milk-TBS-T at 4° C. overnight. The blots were washed three times with TBS-T for 5 min each wash and incubated with horseradish peroxidase-conjugated secondary antibody (Santa Cruz) in 5% nonfat dry milk-TBS-T at RT for an hour. After five washes with TBS-T, the blots were developed with the enhanced chemiluminescence system (ECL™ Western Blotting System, Amersham Biosciences) and exposed to x-ray film according to the manufacturer's instructions. Protein loading was normalized using anti-β-actin antibodies (Santa Cruz Biotechnology, Inc).
On the technique in general: Immunoblotting shows a protein as a band on a membrane.

The subject of test [4] is survivin, Bcl-2, c-IAP-1, c-IAP-2, and TRAF-1. Briefly: Western blot of NF-κB-dependent anti-apoptotic gene products in BxPC-3 cells. Format: cell-based, human. The conditions noted are these: at 8 h. The protocol:
as §2

The test system of test [5] is annexin 1. Briefly: Induction of annexin 1 in HT-29 cells, Western blot. The class given is cell-based, human. The protocol:
as §1
For the study of induction of annexin 1 by anti-inflammatory agents, the cells were incubated with either NO-ASA or Dex for 3 h. The cell fractions were obtained as described by Andrews and Faller (N. C. Andrews and D. V. Faller, Nucleic Acids Res. 19:2499 (1991)) with modification. Briefly, the cells were pelleted after treatment and washed three times with PBS. The cell pellets were resuspended in ice cold buffer A (10 mM HEPES, pH 7.9, 10 mM KCl, 1.5 mM MgCI2, 0.5 mM DTT, 0.5 mM PMSF) with protease inhibitor cocktail (Sigma) and incubated on ice for 15 min with occasional mixing by gently tapping the tube. The cell lysates were centrifuged up to 5000 rpm for three times. The supernatants were collected as cytoplasmic extracts. Nuclear pellets were washed with buffer A and resuspended in buffer C (20 mM HEPES, pH 7.9, 450 mM NaCl, 1.5 mM MgCI2, 0.2 mM EDTA, 0.5 mM DTT, 0.5 mM PMSF, 25% Glycerol) with protease inhibitor cocktail (Sigma) and incubated on ice for 30 min with occasional mixing to extract nuclear proteins. […]

We go through one substance from patent publication US8691764B2, “Inhibitors of NF-κB activity” (The Research Foundation for the State University of New York, priority 2007, dated 2014).

The IC50 is the concentration at which inhibition is half-maximal. With nitric oxide-donating aspirin [NO-ASA], the “induced cell apoptosis after knock-down of annexin 1 by specific siRNA” value in the test with HT-29 cells [1] (HT-29 cells (FIG. 3D)) is “completely abrogated”. The cell apoptosis entry in the test with HT-29 cells [1] (HT-29 cells, 3 h) is “induced”. The “prevention of pancreatic cancer” value in the test with pancreatic cancer was “almost completely prevents pancreatic cancer”. Also, in the test on HT-29 cells [2], the concentration for half-maximal inhibition (IC50) came out at 18.8 µM. Further, the “time of maximal annexin 1 levels in the cytoplasm” value in the test with annexin 1 [3] (cytoplasm) was found to be 3 h. Also, the “expression of annexin 1” value is listed as “induced” in the test with annexin 1 [3] (nuclear and cytoplasmic extracts); “induced” with annexin 1 [5]. Moreover, the “time of peak annexin 1 levels in the nucleus” value with annexin 1 [3] (nucleus) is given as 3 h. Moreover, the “expression of NF-κB-dependent anti-apoptotic genes survivin, Bcl-2, c-IAP-1, c-IAP-2, TRAF-1” value in test [4] is recorded as “suppressed the expression”.
